Results published in patent US20230287044A1, “NOVEL ANTIBACTERIAL PEPTIDE AND USE THEREOF” (priority 2020, published 2023).
≈ marks a conversion by molar mass, not a printed value. Where two headings read alike, the source gives them in different places. Square brackets hold non-standard residues; d marks the D form. Ends that are not written are not given here. Peptide text beside a SMILES is read from it.

How the values were obtained:
[1] = test system: 30 species of Acinetobacter baumannii (A. baumannii); format: cell-based; details: for MIC50 / MIC90: against 30 species of Acinetobacter baumannii
Procedure: In addition, the results obtained by measuring the minimum inhibitory concentrations of KSH29, KSH42 and KSH43 against 30 species of Acinetobacter baumannii (A. baumannii) are shown in Table 4 below.
The minimum inhibitory concentrations (MIC) against the 30 species of Acinetobacter baumannii were measured in the following manner.
The strain 1605 was purchased from ATCC (American Type Culture Collection, USA). In addition, the strain 40203 was purchased from the Korean Culture Center of Microorganisms.
The COL^R refers to resistance to colistin, the TGC^R refers to resistance to tigecycline, and the TGC^I refers to tigecycline intermediate strains.

[2] = Solubility of antibacterial peptides in solution; format: physicochemical
[3] = test system: MRPA (P. aeruginosa) CCARM 2180; format: cell-based, Pseudomonas aeruginosa; details: CCARM 2180, 18 h
Outline: (§1)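 Mid-log cultures grown in CAMHB and diluted to 1× 10^6 cfu/ml in PBS were mixed with an equal volume of peptide in CAMHB (80 µM to 0.63 µM twofold dilutions). MIC taken as the mean of three independent experiments.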

[4] = test system: MRAB (A. baumannii) ATCC BAA 1605; format: cell-based, Acinetobacter baumannii; details: ATCC BAA 1605, 18 h
Outline: as §1

[5] = test system: MRSA (S. aureus) KCCM 40510; format: cell-based, Staphylococcus aureus; details: KCCM 40510, 18 h
Outline: as §1

[6] = test system: VRE (E. faecalis) ATCC 51575; format: cell-based, Enterococcus faecalis; details: ATCC 51575, 18 h
Outline: as §1

[7] = A. baumannii strain 102 (TGC^I)
[8] = A. baumannii strain 141 (TGC^R)
[9] = A. baumannii strain 147 (TGC^R)
[10] = A. baumannii strain 152 (TGC^R)
[11] = A. baumannii strain 40203 (Korean Culture Center of Microorganisms)

Compound: CC[C@@H](C)[C@@H](NC(=O)[C@@H](Cc1c[nH]c2ccccc12)NC(=O)[C@H](NC(=O)[C@@H](CC(C)C)NC(=O)[C@H](N)Cc1c[nH]c2ccccc12)C(C)C)C(=O)N[C@H](Cc1c[nH]c2ccccc12)C(=O)N[C@H](CCCNC(=N)N)C(=O)N[C@H](CCCNC(=N)N)C(=O)N[C@H](CCCNC(=N)N)C(N)=O [KSH29, wlvwiwrrr] (H-[dW][dL][dV][dW][dI][dW][dR][dR][dR]-NH2; N-terminus assumed)
- MIC ([1]; A. baumannii strain 1): 1.25 µM (≈ 1.71 µg/mL)
- MIC ([1]; A. baumannii strain 6 (TGC^I)): 1.25 µM (≈ 1.71 µg/mL)
- MIC ([1]; A. baumannii strain 10): 1.25 µM (≈ 1.71 µg/mL)
- MIC ([1]; A. baumannii strain 14): 1.25 µM (≈ 1.71 µg/mL)
- MIC ([1]; A. baumannii strain 15): 1.25 µM (≈ 1.71 µg/mL)
- MIC ([1]; A. baumannii strain 16): 1.25 µM (≈ 1.71 µg/mL)
- MIC ([1]; A. baumannii strain 19): 1.25 µM (≈ 1.71 µg/mL)
- MIC ([1]; A. baumannii strain 22 (TGC^I)): 1.25 µM (≈ 1.71 µg/mL)
- MIC ([1]; A. baumannii strain 39): 1.25 µM (≈ 1.71 µg/mL)
- MIC ([1]; A. baumannii strain 44): 1.25 µM (≈ 1.71 µg/mL)
- MIC ([1]; A. baumannii strain 66): 1.25 µM (≈ 1.71 µg/mL)
- MIC ([1]; A. baumannii strain 68): 1.25 µM (≈ 1.71 µg/mL)
- MIC ([1]; A. baumannii strain 69): 1.25 µM (≈ 1.71 µg/mL)
- MIC ([1]; A. baumannii strain 71): 1.25 µM (≈ 1.71 µg/mL)
- MIC ([1]; A. baumannii strain 76): 1.25 µM (≈ 1.71 µg/mL)
- MIC ([1]; A. baumannii strain 82): 1.25 µM (≈ 1.71 µg/mL)
- MIC ([1]; A. baumannii strain 89): 1.25 µM (≈ 1.71 µg/mL)
- MIC [1, 7]: 1.25 µM (≈ 1.71 µg/mL)
- MIC ([1]; A. baumannii strain 127): 1.25 µM (≈ 1.71 µg/mL)
- MIC [1, 8]: 1.25 µM (≈ 1.71 µg/mL)
- MIC ([1]; A. baumannii strain 144): 1.25 µM (≈ 1.71 µg/mL)
- MIC [1, 9]: 1.25 µM (≈ 1.71 µg/mL)
- MIC [1, 10]: 1.25 µM (≈ 1.71 µg/mL)
- MIC ([1]; A. baumannii strain 10087): 1.25 µM (≈ 1.71 µg/mL)
- MIC ([1]; A. baumannii strain 19606): 1.25 µM (≈ 1.71 µg/mL)
- MIC [1, 11]: 1.25 µM (≈ 1.71 µg/mL)
- MIC50 [1]: 1.25 µM (≈ 1.71 µg/mL)
- MIC90 [1]: 1.25 µM (≈ 1.71 µg/mL)
- solubility at 12 h ([2]; aqueous buffer): ≥ 100 µM
- solubility at 12 h ([2]; plasma or biological fluid): 50 µM (≈ 68.5 µg/mL)
- solubility at 12 h ([2]; water): > 2000 µM

Compound: CC(C)[C@@H](NC(=O)[C@H](N)Cc1c[nH]c2ccccc12)C(=O)N[C@@H](C(=O)N[C@H](Cc1c[nH]c2ccccc12)C(=O)N[C@@H](C(=O)N[C@@H](C(=O)N[C@H](Cc1c[nH]c2ccccc12)C(=O)N[C@H](CCCNC(=N)N)C(=O)N[C@H](CCCNC(=N)N)C(=O)N[C@H](CCCNC(=N)N)C(N)=O)C(C)C)C(C)C)C(C)C [KSH42, wvvwvvwrrr] (H-[dW][dV][dV][dW][dV][dV][dW][dR][dR][dR]-NH2; N-terminus assumed)
- MIC50 [1]: 1.25 µM (≈ 1.8 µg/mL)
- MIC90 [1]: 1.25 µM (≈ 1.8 µg/mL)
- solubility at 12 h ([2]; aqueous buffer): ≥ 100 µM
- solubility at 12 h ([2]; plasma or biological fluid): 100 µM (≈ 144 µg/mL)
- solubility at 12 h ([2]; water): > 2000 µM

Compound: CC[C@@H](C)[C@@H](NC(=O)[C@@H](Cc1c[nH]c2ccccc12)NC(=O)[C@H](NC(=O)[C@@H](CC(C)C)NC(=O)[C@H](N)Cc1c[nH]c2ccccc12)[C@H](C)CC)C(=O)NCC(=O)N[C@H](CC(C)C)C(=O)N[C@H](CCCNC(=N)N)C(=O)N[C@H](CCCCN)C(=O)N[C@H](CCCCN)C(=O)N[C@H](CCCNC(=N)N)C(N)=O [KSH I, wliwiglrkk r] (H-[dW][dL][dI][dW][dI]G[dL][dR][dK][dK][dR]-NH2; N-terminus assumed)
- MIC MRPA (P. aeruginosa) CCARM 2180 [3]: 10 µM (≈ 14.7 µg/mL)
- MIC MRAB (A. baumannii) ATCC BAA 1605 [4]: 1.25 µM (≈ 1.83 µg/mL)
- MIC MRSA (S. aureus) KCCM 40510 [5]: 2.5 µM (≈ 3.67 µg/mL)
- MIC VRE (E. faecalis) ATCC 51575 [6]: 2.5 µM (≈ 3.67 µg/mL)

Compound: CC[C@H](C)[C@H](NC(=O)[C@H](Cc1c[nH]c2ccccc12)NC(=O)[C@@H](NC(=O)[C@H](CC(C)C)NC(=O)[C@@H](N)Cc1c[nH]c2ccccc12)C(C)C)C(=O)N[C@@H](Cc1c[nH]c2ccccc12)C(=O)N[C@@H](CCCNC(=N)N)C(=O)N[C@@H](CCCCN)C(=O)N[C@@H](CCCCN)C(=O)N[C@@H](CCCNC(=N)N)C(N)=O [LSH28]
- MIC MRPA (P. aeruginosa) CCARM 2180 [3]: 40 µM (≈ 58.8 µg/mL)
- MIC MRAB (A. baumannii) ATCC BAA 1605 [4]: 5 µM (≈ 7.35 µg/mL)
- MIC MRSA (S. aureus) KCCM 40510 [5]: 10 µM (≈ 14.7 µg/mL)
- MIC VRE (E. faecalis) ATCC 51575 [6]: 10 µM (≈ 14.7 µg/mL)

Compound: CN[C@H](CC(C)C)C(=O)N[C@H]1C(=O)N[C@@H](CC(N)=O)C(=O)N[C@H]2C(=O)N[C@H]3C(=O)N[C@H](C(=O)N[C@H](C(=O)O)c4cc(O)cc(O)c4-c4cc3ccc4O)[C@H](O)c3ccc(c(Cl)c3)Oc3cc2cc(c3O[C@@H]2O[C@H](CO)[C@@H](O)[C@H](O)[C@H]2O[C@H]2C[C@](C)(N)[C@H](O)[C@H](C)O2)Oc2ccc(cc2Cl)[C@H]1O [Vancomycin, reference compound]
- solubility at 12 h ([2]; aqueous buffer, PBS, peptide 25 to 200 µM, 12 hours at room temperature, read-out: Solubility in solution PBS): > 200 µM
- solubility at 12 h ([2]; plasma or biological fluid, CAMHB, peptide 25 to 200 µM, 12 hours at room temperature, read-out: Solubility in solution CAMHB): > 200 µM
- solubility at 12 h ([2]; water, H2O, observed for 12 hours at room temperature, read-out: Solubility in solution H2O): > 2000 µM

Compound: Colistin [reference compound]
- MIC ([1]; A. baumannii strain 1): 0.63 µM
- MIC ([1]; A. baumannii strain 3 (COL^R)): >40 µM
- MIC ([1]; A. baumannii strain 6 (TGC^I)): 2.5 µM
- MIC ([1]; A. baumannii strain 10): 2.5 µM
- MIC ([1]; A. baumannii strain 14): 1.25 µM
- MIC ([1]; A. baumannii strain 15): 0.63 µM
- MIC ([1]; A. baumannii strain 16): <0.31 µM
- MIC ([1]; A. baumannii strain 19): <0.31 µM
- MIC ([1]; A. baumannii strain 22 (TGC^I)): 1.25 µM
- MIC ([1]; A. baumannii strain 39): <0.31 µM
- MIC ([1]; A. baumannii strain 44): 1.25 µM
- MIC ([1]; A. baumannii strain 66): 1.25 µM
- MIC ([1]; A. baumannii strain 68): 0.63 µM
- MIC ([1]; A. baumannii strain 69): 1.25 µM
- MIC ([1]; A. baumannii strain 71): 1.25 µM
- MIC ([1]; A. baumannii strain 76): <0.31 µM
- MIC ([1]; A. baumannii strain 80): 0.63 µM
- MIC ([1]; A. baumannii strain 82): 0.63 µM
- MIC ([1]; A. baumannii strain 86): 0.63 µM
- MIC ([1]; A. baumannii strain 89): 2.5 µM
- MIC [1, 7]: 0.63 µM
- MIC ([1]; A. baumannii strain 127): 0.63 µM
- MIC [1, 8]: <0.31 µM
- MIC ([1]; A. baumannii strain 144): 0.63 µM
- MIC [1, 9]: 5 µM
- MIC [1, 10]: 1.25 µM
- MIC ([1]; A. baumannii strain 1605 (ATCC)): 0.63 µM
- MIC ([1]; A. baumannii strain 10087): 1.25 µM
- MIC ([1]; A. baumannii strain 19606): 1.25 µM
- MIC [1, 11]: 0.63 µM
- solubility at 12 h ([2]; read-out: Solubility in solution CAMHB): >200 µM
- solubility at 12 h ([2]; read-out: Solubility in solution H2O): >2000 µM
- solubility at 12 h ([2]; read-out: Solubility in solution PBS): >200 µM

Compound: VWVWVWVRKKR-NH2 [LSH99]
- MIC MRPA (P. aeruginosa) CCARM 2180 [3]: >40 µM
- MIC MRAB (A. baumannii) ATCC BAA 1605 [4]: 2.5 µM
- MIC MRSA (S. aureus) KCCM 40510 [5]: >40 µM
- MIC VRE (E. faecalis) ATCC 51575 [6]: 10 µM

Compound: WLAWLYLRKKR-NH2 [LSH8]
- MIC MRPA (P. aeruginosa) CCARM 2180 [3]: >40 µM
- MIC MRAB (A. baumannii) ATCC BAA 1605 [4]: 5 µM
- MIC MRSA (S. aureus) KCCM 40510 [5]: 20 µM
- MIC VRE (E. faecalis) ATCC 51575 [6]: 20 µM
